Patent USRE43688E1 (The Regents of the University of California, priority 2006, dated 2012)
Several values for one entry are separate records, joined by “and”; a condition that tells them apart may be missing. Equal entries are not always repeated.

Tests used:
[1] = Blood analysis of the monkey PET study (plasma parent and metabolites); assay type: in vivo, Rhesus monkey
Experimental: A blood analysis of the monkey PET study subsequent to administration of ^18F-mefway was performed to observe levels of breakdown in the blood similar to methods described for ^18F-fallypride. Venous whole blood (approx. 1 mL) was obtained at various time-points (5, 10, 15, 30, 45, 60, 90, 120, 150 and 180 min) during the course of the PET study. The samples were centrifuged in a Microfuge centrifuge (Eppendorf Centrifuge 5415C) at 12,000 rpm for 5 min. Plasma, 0.6 mL was separated from each sample and 0.1 mL was counted from each sample. […]. The remaining 0.5 mL of plasma at each time point was combined with 0.1 mL NaHCO3 and mixed well and subsequently extracted with 0.4 mL of ethyl acetate. The ethyl acetate was separated and 0.1 mL of ethyl acetate layer and 0.1 mL of aqueous layer were counted for analysis of ^18F-mefway in blood. […] The developed TLC plate was dried, apposed overnight to phosphor screen, and were read using the Phosphor Cyclone Imager (Packard Instruments Co., Boston Mass.). The amount of ^18F-mefway was evaluated in digital light units (DLU/mm^2) using Opti-Quant acquisition and analysis program (Packard Instruments Co.). All blood samples were counted for radioactivity in a Packard Gamma Counter 5000 series.

[2] = Lipophilicity (log P) by partitioning between n-octanol and Tris-HCl buffer; assay type: physicochemical; settings: n-octanol and 50 M Tris-HCl (pH 7.4) buffer
Experimental: Lipophilicity (log P) was measured to evaluate lipid solubility of ^18F-mefway. The lipophilicity was measured by partitioning between n-octanol and […] Tris-HCl (pH 7.4) buffer. Into three tubes 2 mL of n-octanol and 2 mL of buffer were added and vortexed. To this mixture 370 kBq of ^18F-mefway was added. The mixture was again vortexed and allowed to settle. The layers were separated and the aqueous layer was centrifuged again to remove n-octanol contamination. An aliquot of both layers was counted for concentration of ^18F-mefway using the Cobra Quantum well counter (Packard Instruments Co., Boston, Mass.). Log P was taken as the concentration of ^18F-mefway in n-octanol over concentration of buffer.

[3] = target: T1, 5-HT1A receptors (Macaca mulatta, UniProt F7GIU0); test: Monkey PET study with ^18F-mefway; assay type: in vivo, Rhesus monkey
T1 construct: from tissue; host or cells: brain of a living anaesthetised Rhesus monkey (PET)
T1 sequence (F7GIU0 1-421): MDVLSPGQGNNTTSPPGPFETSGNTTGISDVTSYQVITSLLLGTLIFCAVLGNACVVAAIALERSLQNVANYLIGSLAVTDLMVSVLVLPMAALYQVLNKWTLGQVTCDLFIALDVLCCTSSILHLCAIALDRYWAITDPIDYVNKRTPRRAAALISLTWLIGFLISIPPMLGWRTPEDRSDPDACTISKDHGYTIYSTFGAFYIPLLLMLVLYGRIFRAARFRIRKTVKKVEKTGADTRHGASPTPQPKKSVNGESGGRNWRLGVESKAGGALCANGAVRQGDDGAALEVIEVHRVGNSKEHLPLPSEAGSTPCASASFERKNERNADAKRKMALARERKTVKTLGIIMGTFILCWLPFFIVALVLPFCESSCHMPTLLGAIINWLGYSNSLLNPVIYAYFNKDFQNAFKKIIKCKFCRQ
Experimental: In vivo studies were performed in a Rhesus monkey. The monkey was anesthetized using ketamine (10 mg/kg) and xylazine (0.5 mg/kg) and maintained on 1-1.5% isoflurane. Two intravenous catheters were placed, one on each arm, for administration of the radiopharmaceutical and for obtaining blood samples during the study. Vital signs of the money were monitored carefully. […] The head of the animal was placed in the gantry of an ECAT EXACT HR+PET scanner and positioned in place with the use of adhesive tape. A transmission scan using a Ge-68/Ga-68 rod source was acquired prior to administration of the radiopharmaceutical to correct for tissue attenuation of the coincident radiation. A dynamic sequence of scans was acquired for 180 minutes after administration of 130 MBq of ^18F-Mefway intravenously (specific activity=74-111 GBq/μmol). Data in the final form were expressed in units of percent-injected dose/mL or kBq/mL. Areas showing maximal radioligand binding in the frontal cortex, temporal cortex, dorsal raphe and other braain regions were delineated in the images. The PET images were coregistered with an MRI image template of the rhesus monkey in order to provide anatomical detail as reported previously. This MRI template of the rhesus (Macaca mulatta) brain is an average of 6 monkeys with T1-weighted MR scans. PET image summed till 120 min duration was used for the coregistration. Coregistration of the PET-MR data was carried out by VINCI program (CPS Innovations, Inc.). Time activity curves were obtained for all of these regions.

[4] = Defluorination of ^18F-mefway in in vitro and in vivo experiments; settings: numerous in vitro and in vivo experiments
[5] = target: T2, 5HT1A receptor (Rattus norvegicus, UniProt P19327); test: Competitive binding assay in rat brain slices using ^18F-mefway as the radioligand (autoradiography); settings: 167 kBq/mL ^18F-mefway, 37° C. 1 hour, measured autoradiographically in the hippocampus (FIG. 5), read-out: Binding affinity (IC50) against ^18F-mefway
T2 construct: from tissue; host or cells: 10 um horizontal brain slices of Sprague-Dawley rats
T2 sequence (P19327 1-422): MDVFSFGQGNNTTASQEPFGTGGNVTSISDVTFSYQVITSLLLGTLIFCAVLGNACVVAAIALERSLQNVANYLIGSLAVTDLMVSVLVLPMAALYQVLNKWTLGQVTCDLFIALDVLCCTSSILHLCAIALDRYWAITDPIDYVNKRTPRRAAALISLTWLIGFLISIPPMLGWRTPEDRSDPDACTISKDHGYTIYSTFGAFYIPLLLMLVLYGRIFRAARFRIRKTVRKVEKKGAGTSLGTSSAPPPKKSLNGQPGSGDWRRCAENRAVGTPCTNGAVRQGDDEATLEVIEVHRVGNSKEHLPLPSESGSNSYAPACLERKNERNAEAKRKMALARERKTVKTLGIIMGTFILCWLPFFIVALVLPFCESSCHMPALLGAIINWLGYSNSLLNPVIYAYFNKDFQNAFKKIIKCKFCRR
Experimental: In vitro binding affinity of mefway was measured in rat brain slices labeled with fluorine-18. The brains from Sprague-Dawley rats were extracted and frozen in isopentane at −20° C. Several 10 μm thick horizontal rat brain slices were pre-incubated at room temperature for 15 minutes in 50 mM Tris-HCl buffer (pH 7.4). […] After incubation slides were washed twice with cold buffer for one minute, dipped in cold water, air dried, and exposed to phosphor storage screens for 24 hours. Autoradiographs were generated using the Packard Phosphor Cyclone Imager, and the apposed phosphor screens were read by the Cyclone Storage Phosphor System. […] Binding affinity (IC50) was calculated using KELL program (BioSoft Inc).

[6] = target: T2, 5HT1A receptor; test: Competition study of serotonin with ^18F-mefway in rat brain slices; assay type: binding
Experimental: Male Sprague-Dawley rats (200-250 g) were anesthetized and decapitated, the brain was rapidly removed and frozen in isopentane at −20° C. Horizontal slices were cut 10 μm thick using a Leica 1850 cryotome. Slices contained the regions of cortex, hippocampus, and other regions known to contain 5-HT1A receptors. Brain slices were stored at −20° C. Brain slices were preincubated in 50 mM Tris-HCl buffer (pH 7.4) for 10 mins. The slices were then incubated with 130-148 kBq/mL of ^18F-mefway at 37° C. for 1 hr. […] After incubation, slides were washed twice (one minute for both washes) with ice-cold buffer. Slides were then quickly dipped in cold deionized water, air dried, and exposed to a phosphor screen for 24 hours. The autoradiographs were generated using the Phosphor Cyclone Imager (Packard Instruments Co., Boston Mass.). The amount of binding was evaluated in digital light units (DLU/mm^2) using OptiQuant accusation and analysis program (Packard Instruments Co.) Autoradiographs were quantified using a computer-based image analysis system (OptiQuant Version 4.0 Packard Instruments Co., Boston Mass.).

[7] = target: T2, 5HT1A receptor; test: Rodent studies with trans-^18F-mefway, rat brain slices; assay type: binding; settings: cerebellum as reference region
Description: (§1) Binding of trans-^18F-mefway was evident in several 5HT1A receptor-rich regions, including hippocampus and cortex. Using cerebellum as a reference region, rat brain slices gave ratios of hippocampus/cerebellum=55 and cortex/cerebellum=17. Studies in transgenic mouse models of Alzheimer's disease show >90% loss in 5HT1a receptor binding (data not shown).

[8] = target: T3, 5HT1a receptor (Mus musculus, UniProt Q64264); test: trans-^18F-mefway binding in transgenic mouse models of Alzheimer's disease; settings: transgenic mouse models of Alzheimer's disease (data not shown)
T3 construct: from tissue
T3 sequence (Q64264 1-421): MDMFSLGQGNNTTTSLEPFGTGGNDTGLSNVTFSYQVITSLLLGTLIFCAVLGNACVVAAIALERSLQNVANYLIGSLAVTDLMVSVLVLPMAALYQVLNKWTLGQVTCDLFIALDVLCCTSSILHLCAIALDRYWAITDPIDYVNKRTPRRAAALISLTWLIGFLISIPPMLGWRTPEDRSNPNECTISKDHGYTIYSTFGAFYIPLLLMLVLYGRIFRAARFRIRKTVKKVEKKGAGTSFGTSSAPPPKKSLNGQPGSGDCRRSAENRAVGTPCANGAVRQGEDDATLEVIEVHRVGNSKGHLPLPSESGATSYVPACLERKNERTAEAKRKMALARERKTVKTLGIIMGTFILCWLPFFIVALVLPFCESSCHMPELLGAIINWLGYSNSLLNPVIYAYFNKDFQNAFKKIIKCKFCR
Description: as §1

O=C(O)C1CCC(C[18F])CC1 (stereo not shown) [^18F-4-fluoromethylcyclohexane carboxylic acid]
plateau of acid metabolite (aqueous fraction) in plasma ([1]; after 50 mins post-injection): 50-60%

COc1ccccc1N1CCN(CCN(C(=O)C2CCC(C[18F])CC2)c2ccccn2)CC1 (stereo not shown) [^18F-mefway, N-{2-[4-(2-methoxyphenyl)piperazinyl]ethyl}-N-(2-pyridyl)-N-(4-^18F-fluoromethylcyclohexane)carboxamide]
Lipophilicity (Log P) [2]: 2.62±0.06
raphe ratio (to cerebellum) ([3]; PET): 3.5
time of peak of ratios, second group of regions ([3]; PET): around 80 mins
ratio of hippocampus to cerebellum ([3]; PET, at pseudoequilibrium): exceeded 9
time to reach uptake level in various regions ([3]; PET, brain uptake after i.v. administration): less than 2 mins
hippocampus to cerebellum ratio, peak ([3]; PET, peak): 9.7
uptake level in various brain regions ([3]; PET, reached in less than 2 mins): greater than 0.03 % injected dose/mL
ratio to cerebellum, thalamus, striatum and raphe ([3]; PET, third group of regions): 2-3.5
initial activity in the cerebellum still present ([3]; after 3 hrs): about 6%
vital signs of the monkey ([3]; anesthetized Rhesus monkey during PET study): did not show any unusual deviations from baseline values
hippocampus to cerebellum ratio at end of scan ([3]; end of the 3 hr scan): 8.4
initial activity in the hippocampus still specifically bound ([3]; end of the 3 hr scan): approx 60%
time of approach to pseudoequilibrium / plateau of ratio in receptor-rich regions ([3]; hippocampus (and cortical hot spot), PET, 130 MBq i.v.): around 80 mins
^18F-mefway remaining unmetabolized in plasma ([1]; 3 hours post injection): approximately 30%
defluorination [4]: virtually no deflourination

COc1ccccc1N1CCN(CCN(C(=O)C2CCC(CF)CC2)c2ccccn2)CC1 (stereo not shown) [mefway, N-{2-[4-(2-methoxyphenyl)piperazinyl]ethyl}-N-(2-pyridyl)-N-(4-fluoromethylcyclo-hexane)-carboxamide]
IC50 [5]: 32.1 nM and 25.7 nM

NCCc1c[nH]c2ccc(O)cc12 [serotonin]
displaced ^18F-mefway binding in cortex ([6]; cortex): > 70%
displaced ^18F-mefway binding in hippocampus ([6]; hippocampus): > 85%

COc1ccccc1N1CCN(CCN(C(=O)C2CCC(CF)CC2)c2ccccn2)CC1 (stereo not drawn) [trans-^18F-mefway]
cortex/cerebellum ratio [7]: 17
hippocampus/cerebellum ratio [7]: 55
loss in 5HT1a receptor binding [8]: > 90%
